Results published in ChEMBL document CHEMBL4627246, “Pyroglutamide-Based P2X7 Receptor Antagonists Targeting Inflammatory Bowel Disease” (J Med Chem, 2020).

Experiments:
Format in all cases: cell-based
[1] = tested on: NCI/ADR-RES; experiment: Cytotoxicity against human NCI/ADR-RES cells assessed as effect on cell growth at 10 uM incubated for 48 hrs by sulforhodamine B assay
[2] = tested on: HCT-116; experiment: Cytotoxicity against human HCT116 cells assessed as effect on cell growth at 10 uM incubated for 48 hrs by sulforhodamine B assay; details: hct-116, 48 h
[3] = tested on: SF-295; experiment: Cytotoxicity against human SF295 cells assessed as effect on cell growth at 10 uM incubated for 48 hrs by sulforhodamine B assay; details: sf-295, 48 h
[4] = tested on: K562; experiment: Cytotoxicity against human K562 cells assessed as effect on cell growth at 10 uM incubated for 48 hrs by sulforhodamine B assay; details: k562, 48 h
[5] = tested on: KM12; experiment: Cytotoxicity against human KM12 cells assessed as effect on cell growth at 10 uM incubated for 48 hrs by sulforhodamine B assay; details: km12, 48 h
[6] = tested on: MDA-MB-468; experiment: Cytotoxicity against human MDA-MB-468 cells assessed as effect on cell growth at 10 uM incubated for 48 hrs by sulforhodamine B assay; details: mda-mb-468, 48 h
[7] = tested on: SNB-75; experiment: Cytotoxicity against human SNB75 cells assessed as effect on cell growth at 10 uM incubated for 48 hrs by sulforhodamine B assay; details: snb-75, 48 h
[8] = tested on: DU-145; experiment: Cytotoxicity against human DU145 cells assessed as effect on cell growth at 10 uM incubated for 48 hrs by sulforhodamine B assay; details: du-145, 48 h
[9] = tested on: COLO 205; experiment: Cytotoxicity against human COLO205 cells assessed as effect on cell growth at 10 uM incubated for 48 hrs by sulforhodamine B assay; details: colo 205, 48 h
[10] = tested on: NCI-H322M; experiment: Cytotoxicity against human NCI-H322M cells assessed as effect on cell growth at 10 uM incubated for 48 hrs by sulforhodamine B assay
[11] = tested on: EKVX; experiment: Cytotoxicity against human EKVX cells assessed as effect on cell growth at 10 uM incubated for 48 hrs by sulforhodamine B assay
[12] = tested on: OVCAR-4; experiment: Cytotoxicity against human OVCAR4 cells assessed as effect on cell growth at 10 uM incubated for 48 hrs by sulforhodamine B assay; details: ovcar-4, 48 h
[13] = tested on: 786-0; experiment: Cytotoxicity against human 786-0 cells assessed as effect on cell growth at 10 uM incubated for 48 hrs by sulforhodamine B assay; details: 786-0, 48 h
[14] = tested on: Malme-3M; experiment: Cytotoxicity against human MALME-3M cells assessed as effect on cell growth at 10 uM incubated for 48 hrs by sulforhodamine B assay
[15] = tested on: A498; experiment: Cytotoxicity against human A498 cells assessed as effect on cell growth at 10 uM incubated for 48 hrs by sulforhodamine B assay; details: a498, 48 h
[16] = tested on: HCC 2998; experiment: Cytotoxicity against human HCC2998 cells assessed as effect on cell growth at 10 uM incubated for 48 hrs by sulforhodamine B assay; details: hcc 2998, 48 h
[17] = tested on: OVCAR-8; experiment: Cytotoxicity against human OVCAR8 cells assessed as effect on cell growth at 10 uM incubated for 48 hrs by sulforhodamine B assay; details: ovcar-8, 48 h
[18] = tested on: SK-MEL-5; experiment: Cytotoxicity against human SK-MEL-5 cells assessed as effect on cell growth at 10 uM incubated for 48 hrs by sulforhodamine B assay; details: sk-mel-5, 48 h
[19] = tested on: SR; experiment: Cytotoxicity against human SR cells assessed as effect on cell growth at 10 uM incubated for 48 hrs by sulforhodamine B assay
[20] = tested on: UACC-257; experiment: Cytotoxicity against human UACC257 cells assessed as effect on cell growth at 10 uM incubated for 48 hrs by sulforhodamine B assay; details: uacc-257, 48 h

Measured: Activity

O=C(NCc1ccc(Cl)cc1Cl)[C@@H]1CCC(=O)N1c1cccs1
Non-Toxic: all assays above

COc1ccccc1CN1C(=O)[C@@H]2C/C(=C\N(C)C)C(=O)N2C1N(C)C (stereo not given in full)
Non-Toxic: all assays above

O=C(NCCc1ccccc1)[C@@H]1CCC(=O)N1Cc1ccc(Br)cc1
Non-Toxic: all assays above

COc1ccc(N2C(=O)CC[C@H]2C(=O)NCc2ccc(Cl)cc2Cl)cc1
Non-Toxic: all assays above

CN1C(=O)C(C)(C)C[C@H]1C(=O)NCc1cccc(C(F)(F)F)c1Cl
Non-Toxic: all assays above

O=C1N[C@H](C(=O)NCc2ccc(Cl)cc2Cl)C/C1=N\O (stereo in doubt)
Non-Toxic: all assays above

CN(C)/C=C1\C[C@H]2C(=O)N(Cc3ccc(Cl)cc3Cl)C(N(C)C)N2C1=O (stereo not given in full)
Non-Toxic: all assays above

COc1ccc(N2C(=O)[C@@H]3C/C(=C\N(C)C)C(=O)N3C2N(C)C)cc1 (stereo not given in full)
Non-Toxic: all assays above

COc1ccc(NC(=O)[C@@H]2CCC(=O)N2)cc1OC
Non-Toxic: all assays above

COc1cc(CNC(=O)[C@@H]2CCC(=O)N2)cc(OC)c1OC
Non-Toxic: all assays above

COc1ccc(CN2C(=O)CC[C@H]2C(=O)NCCc2ccccc2)cc1
Non-Toxic: all assays above

CN(C)/C=C1\C[C@H]2C(=O)N(/C(=C/N(C)C)c3ccncc3)C(N(C)C)N2C1=O (stereo not given in full)
Non-Toxic: all assays above

O=C(NCc1ccccc1Cl)[C@@H]1CCC(=O)N1Cc1ccccc1
Non-Toxic: all assays above

O=C1CCCC(C(=O)NCc2ccc(Cl)cc2Cl)N1 (stereo not given)
Non-Toxic: all assays above
